Data from paper PMC8956739, “A synthetic lipopeptide targeting top-priority multidrug-resistant Gram-negative pathogens” (Nature Communications, 2022).
Converted amounts (≈) assume the structure as drawn. “And” between values parts separate entries of the source, which are not always exact repeats. Equal values may be shown once. Read-outs that look alike come from different tables or passages of the source. Residues, ends and D or L forms follow the SMILES beside them.

Tests used:
Swiss mice, kidney = experiment: Nephrotoxicity in mice (kidney histopathology); type: in vivo, mouse; settings: for Kidney histopathology (SQS Score): 72 mg/kg/d subcutaneously in six divided doses every 2 h, n = 3
In short: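 Female Swiss mice (7-week-old, 22–28 g) received lipopeptides in saline either s.c. at 12 mg/kg ×6 every 2 h (total 72 mg/kg, n = 3) or i.p. at 20 or 25 mg/kg ×6 every 2 h (total 120 mg/kg, n = 6; 150 mg/kg, n = 3). Right kidney collected 20 h after last dose, fixed in 10% buffered formalin (pH 7.4), histology scored blinded.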

Swiss mice = experiment: Acute toxicity in mice (maximum tolerated dose, IV bolus); type: in vivo, mouse; settings: for MTD, single replicate: replicates 1-4
Description: Lipopeptide solutions were prepared in 0.9% saline and stored at 4 °C before use. Swiss mice (female, 7-week-old, 22–28 g) were used in the study. A mouse was administered an intravenous bolus of the lipopeptide (mg/kg free base) through a lateral tail vein (≤0.1 mL). After the injection, the mouse was released back into the cage and monitored for clinical signs of toxicity from 0 to 24 h after injection as follows: every 10 min in the first 2 h, every half hour from 2 to 4 h, every hour from 4 to 12 h, and every 2 h from 12 to 24 h.

A. baumannii AB5075 = type: cell-based, Acinetobacter baumannii
In short: (§1)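 Broth microdilution, CaMHB; MIC read as the antibacterial endpoint against ATCC reference strains and clinical isolates.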

A. baumannii ATCC 19606 = type: cell-based, Acinetobacter baumannii
In short: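 Each strain is tested in cation-adjusted Mueller–Hinton broth using the micro-dilution technique, and growth inhibition gives the MIC.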

A. baumannii FADDI-AB030 = type: cell-based, Acinetobacter baumannii
In short: as §1

A. baumannii FADDI-AB034 = type: cell-based, Acinetobacter baumannii
In short: as §1

[1] = tested on: MDR clinical isolates of A. baumannii (n = 210, 200 carbapenem-resistant); type: cell-based, Acinetobacter baumannii; settings: for potency relative to polymyxin B: MIC50/MIC90, A. baumannii panel
In short: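 Compounds were serially diluted in CaMHB, bacteria were added, and the lowest inhibitory concentration was recorded after broth microdilution testing.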

[2] = tested on: P. aeruginosa FADDI-PA102; experiment: MIC, polymyxin-resistant isolate; type: cell-based, Pseudomonas aeruginosa; settings: carbapenem-resistant
Description: MICs were determined in cation-adjusted Mueller–Hinton broth (CaMHB) by the broth micro-dilution method against ATCC strains and clinical isolates. MICs in the presence of Survanta® were determined as described above against P. aeruginosa ATCC 27853. In the 100 μL of fresh CaMHB containing polymyxins, 10% Survanta® (v/v, 2.5 mg/mL phospholipids) was added. MICs in the presence and absence of Survanta® were compared to determine the effect of binding to lung surfactant on the antibacterial activity of polymyxins.

[3] = tested on: K. pneumoniae FADDI-KP027; type: cell-based, Klebsiella pneumoniae
In short: as §1

K. pneumoniae Kp MKP103 = type: cell-based, Klebsiella pneumoniae; settings: polymyxin-resistant
In short: as §1

[4] = tested on: P. aeruginosa PAM1723 (overexpresses MexAB-OprM); type: cell-based, Pseudomonas aeruginosa; settings: Leu-Nap hydrolysis
Description: Bacterial strains were seeded in 50 mL of Luria-Bertani (LB) broth at OD600 0.05 and grown at 37 °C for 3-4 h until an OD600 of 0.6–0.8 was achieved. Bacterial cells were washed twice with 25 mL of buffer (50 mM sodium phosphate, 0.5% glucose, pH 7, with or without 1 mM Mg^2+), resuspended in 10 mL of the buffer, and then adjusted to an OD600 of 0.4. […] Bacterial suspension (50 μL, OD600 0.4) in buffer was added to the lipopeptide solutions and the rate of substrate hydrolysis was measured at 490 nm.
Activity of F365 and polymyxin B in the efflux inhibition assay.
One of the consequences of disruption/permeabilization of the cytoplasmic membrane by polymyxins is the dissipation of the proton gradient across the cytoplasmic membrane. […]
these compounds are expected to inhibit proton-dependent transport activity across the cytoplasmic membrane including efflux. Efflux activity and its inhibition by F365 was assessed by examining the rates of hydrolysis of a fluorogenic substrate of efflux pumps, Leu-Nap, by intact cells of P. aeruginosa. For these experiments we used two strains of P. aeruginosa, PAM1723 and PAM1626. PAM1723 overexpresses the efflux pump MexAB-OprM and PAM1626 lacks this pump as well as several other pumps that extrude Leu-Nap. […] The rate of production of β-naphthylamine (recorded as an increase in fluorescence) is limited by the rate of entry of Leu-Nap into the cells. […]

[5] = mouse, in vivo, ip, 120 mg/kg/day
[6] = MDR clinical isolates of (n = 210, 200 carbapenem-resistant)
[7] = 150 mg/kg/d IP in 6 divided doses every 2 h
[8] = mouse, in vivo, ip, 60 mg/kg/day

| Compound | Kidney histopathology (SQS Score) (Swiss mice, kidney) | Kidney histopathology, mice with the SQS score (Swiss mice, kidney; mouse, in vivo) | Kidney histological damage, mice with the given grade (Swiss mice, kidney; [5]) | MTD, single replicate (Swiss mice) | MIC A. baumannii AB5075 (A. baumannii AB5075; AB5075) | MIC A. baumannii ATCC 19606 (A. baumannii ATCC 19606; ATCC 19606) | MIC A. baumannii FADDI-AB030 (A. baumannii FADDI-AB030; FADDI-AB030) | MIC A. baumannii FADDI-AB034 (A. baumannii FADDI-AB034; FADDI-AB034) | Number of isolates ([1]; isolates with MIC 0.05 µg/mL) | Number of isolates ([1]; isolates with MIC 0.125 µg/mL) | Number of isolates ([1]; isolates with MIC 0.25 µg/mL) | Number of isolates ([1]; isolates with MIC 0.5 µg/mL) | Number of isolates ([1]; isolates with MIC 1 µg/mL) | Number of isolates ([1]; isolates with MIC 2 µg/mL) | Number of isolates ([1]; isolates with MIC 4 µg/mL) | Number of isolates ([1]; isolates with MIC 8 µg/mL) | Number of isolates ([1]; isolates with MIC 16 µg/mL) | Number of isolates ([1]; isolates with MIC 32 µg/mL) | Number of isolates ([1]; isolates with MIC 64 µg/mL) | Number of isolates ([1]; isolates with MIC >64 µg/mL) | other results |
| --- | --- | --- | --- | --- | --- | --- | --- | --- | --- | --- | --- | --- | --- | --- | --- | --- | --- | --- | --- | --- | --- |
| CCCCCCCC(=O)N[C@@H](CCN)C(=O)N[C@H](C(=O)N[C@@H](CN)C(=O)N[C@H]1CCNC(=O)[C@H]([C@@H](C)O)NC(=O)[C@H](CCN)NC(=O)[C@H](CCN)NC(=O)[C@H](CC)NC(=O)[C@@H](CC(C)C)NC(=O)[C@H](CCN)NC1=O)[C@@H](C)O [Lipopeptide F287] (HELM PEPTIDE1{[CCCCCCCC(=O)[*:2]].[Dab].T.[NC[C@H](N[*:1])C(=O)[*:2]].[Dab].[Dab].[dL].[Abu].[Dab].[Dab].T}$PEPTIDE1,PEPTIDE1,5:R3-11:R2$$$V2.0) | 0 (SQS 0 = no significant change (overall score, <1)) | 3/3 | 2/6 | 6.6 mg/kg | 0.5 µg/mL (≈ 0.449 µM) | 0.25 µg/mL (≈ 0.225 µM) | 0.25 µg/mL (≈ 0.225 µM) | <0.125 µg/mL | 0 | 15 | 126 | 54 | 8 | 2 | 0 | 1 | 0 | 0 | 1 | 0 | MIC50 [1, 6]: 0.25 µg/mL (≈ 0.225 µM); MIC90 [1, 6]: 0.5 µg/mL (≈ 0.449 µM); potency relative to polymyxin B [1]: up to 8 fold |
| CCCCCCCC(=O)N[C@@H](CCN)C(=O)N[C@H](C(=O)N[C@@H](CCN)C(=O)N[C@H]1CCNC(=O)[C@H]([C@@H](C)O)NC(=O)[C@H](CCN)NC(=O)[C@H](CCN)NC(=O)[C@H](CC)NC(=O)[C@@H](CC(C)C)NC(=O)[C@H](CCN)NC1=O)[C@@H](C)O [Lipopeptide F319] (HELM PEPTIDE1{[CCCCCCCC(=O)[*:2]].[Dab].T.[Dab].[Dab].[Dab].[dL].[Abu].[Dab].[Dab].T}$PEPTIDE1,PEPTIDE1,5:R3-11:R2$$$V2.0) | +1 (SQS + 1 = mild damage (overall score, 1 to <15)) | 1/3 |  |  |  | 0.5 µg/mL (≈ 0.443 µM) | 0.5 µg/mL (≈ 0.443 µM) | <0.125 µg/mL |  |  |  |  |  |  |  |  |  |  |  |  |  |
| CC[C@@H]1NC(=O)[C@@H](CC(C)C)NC(=O)[C@H](CCN)NC(=O)[C@@H](NC(=O)[C@H](CN)NC(=O)[C@@H](NC(=O)[C@H](CCN)NC(=O)c2ccc(Cl)cc2Cl)[C@@H](C)O)CCNC(=O)[C@H]([C@@H](C)O)NC(=O)[C@H](CCN)NC(=O)[C@H](CCN)NC1=O [Lipopeptide F365] (HELM PEPTIDE1{[O=C(c1ccc(Cl)cc1Cl)[*:2]].[Dab].T.[NC[C@H](N[*:1])C(=O)[*:2]].[Dab].[Dab].[dL].[Abu].[Dab].[Dab].T}$PEPTIDE1,PEPTIDE1,5:R3-11:R2$$$V2.0) | 0 (SQS 0 = no significant change (overall score, <1)) | 3/3 | 6/6 | 10.1 mg/kg | 0.5 µg/mL (≈ 0.431 µM) | 0.25 µg/mL (≈ 0.215 µM) | 0.25 µg/mL (≈ 0.215 µM) | 0.25 µg/mL (≈ 0.215 µM) | 1 | 7 | 99 | 81 | 8 | 9 | 1 | 0 | 1 | 2 | 1 | 0 | SQS score (Swiss mice, kidney; [7]): 0 (SQS 0 = no significant change (overall score, <1)); mice with the SQS score (Swiss mice, kidney; [7]): 3/3; Kidney damage (Swiss mice, kidney; mouse, in vivo, ip, 150 mg/kg): no significant damage to the kidneys; MIC50 [1, 6]: 0.25 µg/mL (≈ 0.215 µM); MIC90 [1, 6]: 1 µg/mL (≈ 0.862 µM); potency relative to polymyxin B [1]: ≤ 4 fold; MIC P. aeruginosa FADDI-PA102 [2]: 4 µg/mL (≈ 3.45 µM); MIC K. pneumoniae FADDI-KP027 ([3]; FADDI-KP027): > 32 µg/mL; MIC K. pneumoniae Kp MKP103 (K. pneumoniae Kp MKP103): 8 µg/mL (≈ 6.9 µM); IC50, inhibition of efflux activity [4]: 4.2 ± 1.5 µg/mL |
| Colistin [reference compound] | +5 (SQS + 5 = severe damage (overall score, >60)) | 3/3 |  | 6 mg/kg and 5.8 mg/kg and 5 mg/kg |  |  |  |  |  |  |  |  |  |  |  |  |  |  |  |  | average maximum tolerated dose (MTD) (Swiss mice; single IV bolus dose, n = 4): 5.3 mg/kg; MIC A. baumannii AB5075 (A. baumannii AB5075): 0.5 µg/mL; MIC A. baumannii ATCC 19606 (A. baumannii ATCC 19606): 1 µg/mL; MIC A. baumannii FADDI-AB030 (A. baumannii FADDI-AB030; carbapenem-resistant isolate): 0.5 µg/mL; MIC A. baumannii FADDI-AB034 (A. baumannii FADDI-AB034; carbapenem-resistant isolate): 0.5 µg/mL |
| Polymyxin B [reference compound] | +5 (SQS + 5 = severe damage (overall score, >60)) | 3/3 |  | 7 mg/kg and 5 mg/kg and 4.6 mg/kg |  |  |  |  | 0 | 0 | 0 | 24 | 120 | 47 | 11 | 5 | 2 | 0 | 0 | 0 | Kidney histological damage (Swiss mice, kidney; [8]): Moderate to severe; Kidney histological damage, mice with the given grade (Swiss mice, kidney; [8]): 6/6; MIC A. baumannii AB5075 (A. baumannii AB5075): 0.5 µg/mL; MIC A. baumannii ATCC 19606 (A. baumannii ATCC 19606): 1 µg/mL; MIC A. baumannii FADDI-AB030 (A. baumannii FADDI-AB030; carbapenem-resistant isolate): 0.25 µg/mL; MIC A. baumannii FADDI-AB034 (A. baumannii FADDI-AB034; carbapenem-resistant isolate): 0.5 µg/mL; MIC50 ([1]; A. baumannii n = 210): 1 µg/mL; MIC90 ([1]; A. baumannii n = 210): 4 µg/mL; MIC P. aeruginosa FADDI-PA102 [2]: 4 µg/mL; MIC K. pneumoniae FADDI-KP027 ([3]; polymyxin-resistant): > 32 µg/mL; MIC K. pneumoniae Kp MKP103 (K. pneumoniae Kp MKP103): 16 µg/mL; IC50, inhibition of efflux activity [4]: 7.6 ± 1.4 µg/mL |
